Here are results for one compound from patent US20200316090A1, “TARGETED THERAPEUTICS” (MADRIGAL PHARMACEUTICALS, INC., priority 2012, published 2020).

This assay concerns HER2. As to the kind of experiment: HER2 degradation in BT-474 cells (Example 3, Method 1 Western blot / Method 2 LI-COR imaging). In kind it is cell-based, human. As to conditions: 0.5 μM, overnight. The source says: This example illustrates how a HER2 degradation assay may be used as a test to determine and select Hsp90-targeting moieties suitable for use in SDC-TRAPs of the invention, and further illustrates the ability of SDC-TRAPs to target cells preferentially expressing Hsp90. Such a test may further be used to determine the Hsp90 binding ability of SDC-TRAPs of the invention, as well as through competitive binding assays and cell-based Hsp90 client protein degradation assays known in the art.
After treatment, each cytoplasmic sample is prepared from 1×10^6 cells by incubation of cell lysis buffer (#9803, Cell Signaling Technology) on ice for 10 minutes. The resulting supernatant used as the cytosol fractions is dissolved with sample buffer for SDS-PAGE and run on a SDS-PAGE gel, blotted onto a nitrocellulose membrane by using semi-dry transfer. […]
Cells are then fixed in 4% phosphate-buffered paraformaldehyde for 30 minutes at room temperature and then permeabilized by washing five times with 0.1% Triton X-100 in PBS for 5 minutes at room temperature on a shaker. […] The raw data is normalized to DRAQS and the HER2 EC50 is calculated using XLfit™ […]
In general terms: Immunoblotting shows a protein as a band on a membrane.

Turning to `C=CCNC1=C2C[C@@H](C)C[C@H](OC)[C@H](O)[C@@H](C)/C=C(\C)[C@H](OC(N)=O)[C@@H](OC)/C=C\C=C(/C)C(=O)NC(=CC1=O)C2=O` [17-AAG], the “degradation of HER2” value is “partial degradation of HER2”.
